Tested on: human M2 macrophages
Experiment: Inhibition of human M2 macrophage activity, hCCL22 in culture supernatant by ELISA
Format: cell-based
Conditions: for inhibition at 10 µM / inhibition at 5 µM: Macrophage, 72 hours; for inhibition at 10 µM: hCCL22 inhibitory activity at 10 μM; for EC50: hCCL22 secretion, THP-1 derived M2-like macrophages, compound present during 72 hours of differentiation; for inhibition at 5 µM: hML22 inhibitory activity at 5 μM
Protocol: To obtain human M2 macrophages, human monocytes (THP-1 monocyte, CD4 expression) were stabilized in a 96-well plate for 24 hours and then incubated in culture media containing 100 ng/mL phorbal 12-myristate-13-acetate (PMA; Sigma, P8139) for 24 hours to differentiate into M0 macrophages (macrophage-like phenotype). It was confirmed that differentiated M0 macrophages had reduced CD4 expression and expressed CD11b. M0 macrophages in the plate well were washed once with culture media and incubated in culture media containing 25 ng/mL hIL-4 (Peprotech, 200-04-50) and 25 ng/mL hIL-13 (Peprotech, 200-13-50) for 72 hours to differentiate into M2-like macrophages. Test compounds were diluted by concentration in M2 differentiation media and treated simultaneously during a differentiation period of 72 hours. The inhibitory effect of the test compounds on M2 macrophages was determined by measuring hCCL22 in the medium culture supernatant cultured for 72 hours using an ELISA assay (R&D system, DMD00). The results of the activity measurements are represented in Table 3 (EC50), Table 4 ([…] inhibitory activity at 5 μM) and Table 5 (hCCL22 inhibitory activity at 10 μM).

| EC50 | Compound | inhibition at 10 µM | inhibition at 5 µM |
| --- | --- | --- | --- |
| – | O=c1n(-c2ccccc2)c(=O)n2n1CC=C1C2c2ccc(O)cc2OC1(CF)CF (stereo not shown) [Example 1, 7,7-bis(fluoromethyl)-10-hydroxy-2-phenyl-5,12b-dihydro-1H,7H-chromeno[4,3-c][1,2,4]triazolo[1,2-a]pyridazine-1,3(2H)-dione] | 80.4% | – |
| – | CC(=O)c1ccc(-n2c(=O)n3n(c2=O)C2C(=CC3)C(CF)(CF)Oc3cc(O)ccc32)cc1 (stereo not shown) [Example 2, 2-(4-acetylphenyl)-7,7-bis(fluoromethyl)-10-hydroxy-5,12b-dihydro-1H,7H-chromeno[4,3-c][1,2,4]triazolo[1,2-a]pyridazine-1,3(2H)-dione] | 64.4% | – |
| – | CC(=O)Nc1ccc2c(c1)OC(C)(C)C1=CCn3c(=O)n(-c4ccc(C(C)=O)cc4)c(=O)n3C12 (stereo not shown) [Example 3, N-(2-(4-acetylphenyl)-7,7-dimethyl-1,3-dioxo-2,3,5,12b-tetrahydroxy-1H,7H-chromeno[4,3-c][1,2,4]triazolo[1,2-a]pyridazin-10-yl)acetamide] | 16.9% | – |
| – | CC(=O)c1ccc(-n2c(=O)n3n(c2=O)C2C(=CC3)C(C)(C)Oc3cc(S(C)(=O)=O)ccc32)cc1 (stereo not shown) [Example 4, 2-(4-acetylphenyl)-7,7-dimethyl-10-(methylsulfonyl)-5,12b-dihydro-1H,7H-chromeno[4,3-c][1,2,4]triazolo[1,2-a]pyridazine-1,3(2H)-dione] | 51.9% | – |
| – | CC(=O)c1ccc(-n2c(=O)n3n(c2=O)C2C(=CC3)C(C)(C)Oc3cc(NS(C)(=O)=O)ccc32)cc1 (stereo not shown) [Example 5, N-(2-(4-acetylphenyl)-7,7-dimethyl-1,3-dioxo-2,3,5,12b-tetrahydro-1H,7H-chromeno[4,3-c][1,2,4]triazolo[1,2-a]pyridazin-10-yl)methanesulfonamide] | 42.3% | – |
| 4.5 µM | CC(=O)c1ccc(-n2c(=O)n3n(c2=O)C2C(=CC3)C(C)(C)Oc3cc(N)ccc32)cc1 (stereo not shown) [Example 7, 2-(4-acetylphenyl)-10-amino-7,7-dimethyl-5,12b-dihydro-1H,7H-chromeno[4,3-c][1,2,4]triazolo[1,2-a]pyridazine-1,3(2H)-dione] | 83.4% | – |
| – | CC(=O)c1ccc(-n2c(=O)n3n(c2=O)C2C(=CC3)C(C)(C)Oc3cc(N4CCOCC4)ccc32)cc1 (stereo not shown) [Example 8, 2-(4-acetylphenyl)-7,7-dimethyl-10-morpholino-5,12b-dihydro-1H,7H-chromeno[4,3-c][1,2,4]triazolo[1,2-a]pyridazine-1,3(2H)-dione] | 60.7% | – |
| – | CC(=O)c1ccc(-n2c(=O)n3n(c2=O)C2C(=CC3)C(C)(C)Oc3cc(NS(N)(=O)=O)ccc32)cc1 (stereo not shown) [Example 9, N-(2-(4-acetylphenyl)-7,7-dimethyl-1,3-dioxo-2,3,5,12b-tetrahydro-1H,7H-chromeno[4,3-c][1,2,4]triazolo[1,2-a]pyridazin-10-yl)sulfuric diamide] | 74.8% | – |
| – | CC(=O)c1ccc(-n2c(=O)n3n(c2=O)C2C(=CC3)C(C)(C)Oc3c2cc(Br)c(O)c3Br)cc1 (stereo not shown) [Example 10, 2-(4-acetylphenyl)-9,11-dibromo-10-hydroxy-7,7-dimethyl-5,12b-dihydro-1H,7H-chromeno[4,3-c][1,2,4]triazolo[1,2-a]pyridazine-1,3(2H)-dione] | 98.4% | – |
| – | CC(=O)c1ccc(-n2c(=O)n3n(c2=O)C2C(=CC3)C(C)(C)Oc3c2cc(Cl)c(O)c3Cl)cc1 (stereo not shown) [Example 11, 2-(4-acetylphenyl)-9,11-dichloro-10-hydroxy-7,7-dimethyl-5,12b-dihydro-1H,7H-chromeno[4,3-c][1,2,4]triazolo[1,2-a]pyridazine-1,3(2H)-dione] | 78.1% | – |
| – | CC1(C)Oc2cc(O)ccc2C2C1=CCn1c(=O)n(-c3cccc(F)n3)c(=O)n12 (stereo not shown) [Example 12, 2-(6-fluoropyridin-2-yl)-10-hydroxy-7,7-dimethyl-5,12b-dihydro-1H,7H-chromeno[4,3-c][1,2,4]triazolo[1,2-a]pyridazine-1,3(2H)-dione] | 16.8% | – |
| 4 µM | CCNc1ccc2c(c1)OC(C)(C)C1=CCn3c(=O)n(-c4ccc(C(C)=O)cc4)c(=O)n3C12 (stereo not shown) [Example 16, 2-(4-acetylphenyl)-10-(ethylamino)-7,7-dimethyl-5,12b-dihydro-1H,7H-chromeno[4,3-c][1,2,4]triazolo[1,2-a]pyridazine-1,3(2H)-dione] | 79.9% | – |
| 8.2 µM | CC(=O)c1ccc(-n2c(=O)n3n(c2=O)C2C(=CC3)C(C)(C)Oc3cc(NCC(F)(F)F)ccc32)cc1 (stereo not shown) [Example 17, 2-(4-acetylphenyl)-7,7-dimethyl-10-((2,2,2-trifluoroethyl)amino)-5,12b-dihydro-1H,7H-chromeno[4,3-c][1,2,4]triazolo[1,2-a]pyridazine-1,3(2H)-dione] | – | – |
| – | CC(=O)c1ccc(-n2c(=O)n3n(c2=O)C2C(=CC3)C(C)(C)Oc3cc(N4CCN(C(C)=O)CC4)ccc32)cc1 (stereo not shown) [Example 19, 2-(4-acetylphenyl)-10-(4-acetylpiperazin-1-yl)-7,7-dimethyl-5,12b-dihydro-1H,7H-chromeno[4,3-c][1,2,4]triazolo[1,2-a]pyridazine-1,3(2H)-dione] | 18.8% | – |
| – | CC(=O)c1ccc(-n2c(=O)n3n(c2=O)C2C(=CC3)C(C)(C)Oc3cc(O)c(OC(F)(F)F)cc32)cc1 (stereo not shown) [Example 25, 2-(4-acetylphenyl)-10-hydroxy-7,7-dimethyl-11-(trifluoromethoxy)-5,12b-dihydro-1H,7H-chromeno[4,3-c][1,2,4]triazolo[1,2-a]pyridazine-1,3(2H)-dione] | – | 42% |
| – | CC(=O)c1ccc(-n2c(=O)n3n(c2=O)C2C(=CC3)C(C)(C)Oc3c2cc(F)c(O)c3F)cc1 (stereo not shown) [Example 27, 2-(4-acetylphenyl)-9,11-difluoro-10-hydroxy-7,7-dimethyl-5,12b-dihydro-1H,7H-chromeno[4,3-c][1,2,4]triazolo[1,2-a]pyridazine-1,3(2H)-dione] | – | 29.9% |
| – | CC(=O)c1ccc(-n2c(=O)n3n(c2=O)C2C(=CC3)C(C)(C)Oc3c2cc(Br)c(N)c3Br)cc1 (stereo not shown) [Example 28, 2-(4-acetylphenyl)-10-amino-9,11-dibromo-7,7-dimethyl-5,12b-dihydro-1H,7H-chromeno[4,3-c][1,2,4]triazolo[1,2-a]pyridazine-1,3(2H)-dione] | – | 71.2% |
| 3.3 µM | CC(=O)c1ccc(-n2c(=O)n3n(c2=O)C2C(=CC3)C(C)(C)Oc3cc(NC(C)C)ccc32)cc1 (stereo not shown) [Example 29, 2-(4-acetylphenyl)-10-(isopropylamino)-7,7-dimethyl-5,12b-dihydro-1H,7H-chromeno[4,3-c][1,2,4]triazolo[1,2-a]pyridazine-1,3(2H)-dione] | 95.2% | – |
| 4.3 µM | CC(=O)c1ccc(-n2c(=O)n3n(c2=O)C2C(=CC3)C(C)(C)Oc3cc(NC(C)(C)C)ccc32)cc1 (stereo not shown) [Example 30, 2-(4-acetylphenyl)-10-(tert-butylamino)-7,7-dimethyl-5,12b-dihydro-1H,7H-chromeno[4,3-c][1,2,4]triazolo[1,2-a]pyridazine-1,3(2H)-dione] | 97.3% | – |
| 2 µM | CC(=O)c1ccc(-n2c(=O)n3n(c2=O)C2C(=CC3)C(C)(C)Oc3c2cc(Cl)c(N)c3Cl)cc1 (stereo not shown) [Example 31, 2-(4-acetylphenyl)-10-amino-9,11-dichloro-7,7-dimethyl-5,12b-dihydro-1H,7H-chromeno[4,3-c][1,2,4]triazolo[1,2-a]pyridazine-1,3(2H)-dione] | 97.2% | – |
| 6.1 µM | CNc1ccc2c(c1)OC(C)(C)C1=CCn3c(=O)n(-c4ccc(C(C)=O)cc4)c(=O)n3C12 (stereo not shown) [Example 32, 2-(4-acetylphenyl)-7,7-dimethyl-10-(methylamino)-5,12b-dihydro-1H,7H-chromeno[4,3-c][1,2,4]triazolo[1,2-a]pyridazine-1,3(2H)-dione] | 84.4% | – |
| 5.8 µM | CCN(CC)c1ccc2c(c1)OC(C)(C)C1=CCn3c(=O)n(-c4ccc(C(C)=O)cc4)c(=O)n3C12 (stereo not shown) [Example 33, 2-(4-acetylphenyl)-10-(diethylamino)-7,7-dimethyl-5,12b-dihydro-1H,7H-chromeno[4,3-c][1,2,4]triazolo[1,2-a]pyridazine-1,3(2H)-dione] | 96.5% | – |
| 7.7 µM | CC(=O)c1ccc(-n2c(=O)n3n(c2=O)C2C(=CC3)C(C)(C)Oc3cc(N4CCCC4)ccc32)cc1 (stereo not shown) [Example 34, 2-(4-acetylphenyl)-7,7-dimethyl-10-(pyrrolidin-1-yl)-5,12b-dihydro-1H,7H-chromeno[4,3-c][1,2,4]triazolo[1,2-a]pyridazine-1,3(2H)-dione] | 73.7% | – |
| 4.8 µM | CC1(C)Oc2cc(NC3COC3)ccc2C2C1=CCn1c(=O)n(-c3ccc(F)cc3)c(=O)n12 (stereo not shown) [Example 35, 2-(4-fluorophenyl)-7,7-dimethyl-10-(oxetan-3-ylamino)-5,12b-dihydro-1H,7H-chromeno[4,3-c][1,2,4]triazolo[1,2-a]pyridazine-1,3(2H)-dione] | 96.7% | – |
| 10.8 µM | CNc1c(Cl)cc2c(c1Cl)OC(C)(C)C1=CCn3c(=O)n(-c4ccc(C(C)=O)cc4)c(=O)n3C12 (stereo not shown) [Example 36, 2-(4-acetylphenyl)-9,11-dichloro-7,7-dimethyl-10-(methylamino)-5,12b-dihydro-1H,7H-chromeno[4,3-c][1,2,4]triazolo[1,2-a]pyridazine-1,3(2H)-dione] | – | – |

Reference: patent US20250042911A1, “NOVEL BENZOPYRAN DERIVATIVE AND USE THEREOF” (SPARK BIOPHARMA, INC, priority 2021, published 2025)
